In US8642593B2, “2,4-pyrimidinediamine compounds and prodrugs and their uses” (Rigel Pharmaceuticals, Inc., priority 2009, dated 2014):
Read-outs that look alike come from different tables or passages of the source.

Key:
[1] = tested on: mast cell activation induced by FcγR cross-linking (CHMC cells); assay: LD Tryptase CHMC: tryptase release assay; type: cell-based, Human; details: for inhibition in tryptase assay, in words: prodrug
Protocol: Compounds are assayed for inhibition of mast cell activation induced by FcγR cross-linking by measuring the activity of tryptase released upon degranulation as follows:
Human mast cells are cultured and differentiated from CD38-negative progenitor cell as described in U.S. Patent Publication No. 2005/0234049, which is hereby incorporated herein by reference in its entirety. For example, 65 μL of various concentrations of the test compound are prepared in MT (137 mM NaCl, 2.7 mM KCl, 1.8 mM CaCl2, 1.0 mM MgCl2, 5.6 mM Glucose, 20 mM Hepes (pH 7.4), 0.1% Bovine Serum Albumin, (Sigma, #A4503)) containing 2% MeOH and 1% DMSO, or control buffer are added to duplicate 96-well V-bottom plates. Pelleted and re-suspended (in warm MT) CHMC cells (65 μL) are added to each 96-well plate, mixed and incubated for 1 hour at 37° C. […] MT (25 μL) is added to control wells. After a 60-minute incubation at 37° C., cells and cell debris were pelleted by centrifugation at 1000 rpm for 10 min and tryptase and leukotriene C4 levels are measured.
To measure tryptase levels, 25 μL of supernatant from each well is transferred to a fresh 96-well black bottom plate, to which 100 μL of fresh tryptase substrate solution [(Z-Ala-Lys-Arg-AMC2TFA; Enzyme Systems Products, #AMC-246)]1:2000 in tryptase assay buffer [0.1M Hepes (pH 7.5), 10% w/v Glycerol, 10 μM Heparin (Sigma H-4898) 0.01% NaN3] is added. After 30 minutes incubation at room temperature, the optical density of the plates is measured at 355 nm/460 nm on a spectrophotometric plate reader.
Compounds of the disclosure were assayed for their ability to inhibit mast cell activation induced by FcγR cross-linking by measuring the activity of tryptase released upon degranulation.

[2] = tested on: allergen induced basophil degranulation; assay: CD63 Assay (BASOTEST, FACS, whole blood, anti-IgE); type: cell-based; details: whole blood, anti-IgE; Table 2, unit inferred
Protocol: Compounds are tested for the ability to inhibit allergen induced basophil degranulation. The BASOTEST® kit (Orpegen Pharma GmbH, #10-0500) is used in this assay. In a 5 mL FACS tube 105 μL of Heparinized whole blood, 25 μL of test compound solution (in DMSO) are incubated at room temperature for 30-60 minutes. To induce degranulation, 20 μL stimulation buffer (Reagent B) is added, and the tube is incubated for 10 min in a 37° C. water bath. Then, 100 μL of anti-IgE (2 μg/mL) is added, or 100 µL of washing solution (reagent A) is added (i.e., as a negative control). The tube is incubated for 20 min in a 37° C. water bath. Degranulation is then stopped by incubation on ice for 5 min. 20 μL of staining reagent (reagent F) is added, and the tube is incubated on ice in the dark for 20 min. 2 mL of room temperature lysing solution is added, and the tube is incubated at room temperature for 10 min. The tubes are spun down at 4° C. for 5 min at 1600 rpm, and the supernatant is discarded. 3 mL washing solution (reagent A) is added, and the tubes spun down at 4° C. for 5 min at 1600 rpm, and the supernatant is discarded. 200 μL washing solution is added to the remaining cell pellet, and the samples are incubated on ice in the dark until analysis (within 2 h). Analysis is performed using flow cytometry at 488 nm using the conditions specified in the BASOTEST® kit instructions to determine percentage of activated basophilic granulocytes.

[3] = human mast cells, anti-IgG stimulation, read-out: IC50 (LD Tryptase CHMC)

Compound | IC50 [1, 3] | inhibition in tryptase assay, in words [1] | IC50 ([1]; Homo sapiens, Mast cell, Table 2, unit inferred, read-out: LD Tryptase CHMC) | IC50 [2]
CC1(C)Oc2ccc(Nc3nc(Nc4ccc(N5CCOCC5)nc4)ncc3F)nc2N(COP(=O)([O-])[O-])C1=O.[Na+].[Na+] [Compound 2, N4-[2,2-Dimethyl-4-[(dihydrogenphosphonoxy)methyl]-3-oxo-5-pyrido[1,4]oxazin-6-yl]-5-fluoro-N2-(6-morpholinopyridin-3-yl)-2,4-pyrimidinediamine disodium salt] | 21900 nM | only micromolar inhibition | – | –
CC1(C)Oc2ccc(Nc3nc(Nc4ccc(N5CCOCC5)cc4)ncc3F)nc2N(COP(=O)([O-])[O-])C1=O.[Na+].[Na+] [Compound 4, N4-[2,2-Dimethyl-4-[(dihydrogenphosphonoxy)methyl]-3-oxo-5-pyrido[1,4]oxazin-6-yl]-5-fluoro-N2-(4-morpholinophenyl)-2,4-pyrimidinediamine disodium salt] | 2360 nM | only micromolar inhibition | – | –
COc1cc(Nc2ncc(F)c(Nc3ccc4c(n3)NC(=O)C(C)(C)O4)n2)cc(OC)c1OC [N4-(2,2-Dimethyl-3-oxo-4H-5-pyrido[1,4]oxazin-6-yl)-5-fluoro-N2-(3,4,5-trimethoxyphenyl)-2,4-pyrimidinediamine, reference compound] | – | – | 40 nM | 930 nM
